Test [1] has as its target Recombinant human MAO-B (Homo sapiens (Human), UniProt P27338). As to the kind of experiment: Inhibition of human recombinant MAO-B. The class given is biochemical. The following applies: benzylamine 100 μM. The procedure: This vector containing human SSAO/VAP-1 residues was transfected into CHO-K1 glycosylation mutant cell line, Lec 8. A clone stably expressing human SSAO/VAP-1 was isolated and cultured in large scale. Active human SSAO/VAP-1 was purified and recovered using immunoaffinity chromatography. This was used as source for SSAO/VAP-1 activity. A high-throughput colorimetric assay was developed using either 96 or 384 well format. Briefly, in a standard 96 well plate assay 50 μL of purified human SSAO/VAP-1 (0.25 μg/mL) in 0.1 M NaPO4 buffer (pH 7.4) was added into each well.
The specificity of invention compounds was tested by determining their ability to inhibit MAO-B activities in vitro. Recombinant human MAO-B (0.06 mg/mL; Sigma Aldrich) was used as source of MAO-B enzyme activities.

For test [2], the target named is Endogenous SSAO/VAP-1 in rat fat (Rattus norvegicus (Rat), UniProt O08590). As to the kind of experiment: Inhibition of SSAO/VAP-1 in rat fat homogenate. It is filed as biochemical. The following applies: benzylamine 30 μM. The procedure:
Abdominal fat from BALB/c mice, Wistar or Sprague Dawley rats, which are tissues enriched with SSAO/VAP-1-were surgically removed. For every gram of animal abdominal fat tissue, 1 mL of 0.1 M NaPO4 buffer (pH 7.4) was added. Tissues were homogenized using IKA Ultra-Turrax T 10 homogenizer for 3 min, homogenate was centrifuged for 15 min at 3000×g. The middle layer (clear supernatant) was removed without disturbing the top layer (high fat content) or the debris on the bottom of the tube. SSAO/VAP-1 activity was determined by checking the fluorescent signal. Km/Vmax values were determined and the fat homogenate was aliquoted and stored at −80 C until assays were performed.

Test [3] deals with Recombinant human DAO (Homo sapiens (Human), UniProt P19801). As to the kind of experiment: Inhibition of human recombinant diamine oxidase. The class given is biochemical. The following applies: putrescine 200 μM.
Recombinant human DAO, sequence (P19801 20-751): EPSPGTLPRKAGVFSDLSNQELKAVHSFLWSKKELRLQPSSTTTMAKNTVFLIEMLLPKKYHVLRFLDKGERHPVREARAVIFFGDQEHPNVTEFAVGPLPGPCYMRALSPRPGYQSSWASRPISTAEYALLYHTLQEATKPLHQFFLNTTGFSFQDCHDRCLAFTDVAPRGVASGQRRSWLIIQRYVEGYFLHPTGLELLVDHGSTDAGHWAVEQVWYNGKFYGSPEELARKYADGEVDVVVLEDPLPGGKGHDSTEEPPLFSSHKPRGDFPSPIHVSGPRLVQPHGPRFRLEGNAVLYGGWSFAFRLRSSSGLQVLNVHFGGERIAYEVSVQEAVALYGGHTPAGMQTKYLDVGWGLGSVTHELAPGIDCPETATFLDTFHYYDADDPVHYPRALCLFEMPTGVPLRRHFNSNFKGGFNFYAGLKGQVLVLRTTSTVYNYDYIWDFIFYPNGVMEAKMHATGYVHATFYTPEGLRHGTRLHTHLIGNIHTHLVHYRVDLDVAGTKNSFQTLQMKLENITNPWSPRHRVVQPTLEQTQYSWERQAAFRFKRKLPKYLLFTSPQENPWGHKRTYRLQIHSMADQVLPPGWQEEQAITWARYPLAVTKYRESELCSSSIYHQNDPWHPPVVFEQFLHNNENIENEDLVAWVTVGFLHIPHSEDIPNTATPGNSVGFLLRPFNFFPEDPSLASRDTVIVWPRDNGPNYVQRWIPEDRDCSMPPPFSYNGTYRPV
Test [4] addresses recombinant human VAP-1 (Homo sapiens, UniProt Q16853). Nature of the test: Inhibition of human recombinant SSAO/VAP-1 expressed in HMEC cells (cell lysate).
Experimental: A clone stably expressing human SSAO/VAP-1 was selected and was stored in liquid nitrogen until cell lysate was required for colorimetric assay. Briefly, HMEC cell expressing human SSAO/VAP-1 were grown in several 10 cm petri dishes, once the cells reached 100% confluency, cells were harvested and homogenates were prepared. Cells were washed twice with 5 mL of chilled HES buffer (20 mM HEPES, 1 mM EDTA, 250 mM sucrose, pH 7.4). HES buffer containing 1× protease inhibitor (Sigma Aldrich) and added and cells were incubated on ice for 3 min. Buffer was removed and cells were scraped and transferred to a centrifuge tube. Cell lysates were prepared by passing through 23 G needle for, 10 times and followed by 27 G needle for 10 times. Alternatively the cell lysates were prepared by using IKA Ultra-Turrax T 10 homogenizer for 3 min for every 10 mL of cell suspensions. Cells were then spun for 5 min at 300×g. The clear supernatant was transferred to new centrifuge tube and stored at −80° C. until colorimetric assay was performed. Prior to the assay, 0.5 mM pargyline was added in order to inhibit any residue MAO activities. […] Briefly, 50 μL of cell lysate was incubated with test compounds for 30 min at 37° C.
The test system of test [5] is LPS-induced neuroinflammation. Nature of the test: Parkinson's disease Model A: systemic exposure to LPS. It is filed as in vivo, Long Evans rats. The note with it: 2 mg/kg ip. The procedure:
Parkinson's disease is a pathological, age-related neurodegenerative disorder, characterized by a specific and progressive degeneration of dopaminergic neurons.
Long Evans rats were dosed intraperitoneal (ip) with 2 mg/kg of Compound 9 or vehicle 1 h before the first (time 0 h) and the third (time 24 h) injections of LPS. At time 0 the animals received a dose of 10 mg/kg of LPS. At time 6 and 24 h the animals were dosed with 3 mg/kg of LPS solution, ip. 30 h after the first LPS injection, the animals received ip injections of lethabarb and were transcardially perfused with 400 ml. PBS at 4° C. followed by 400 ml of 4% paraformaldehyde (PFA). The brains were post fixed overnight in 4% PFA at 4° C. followed by 20% sucrose solution for 24 h. 30 μm sections were collected and stained for immunofluorescence, immunohistochemistry and western blot analysis.

Test [6] deals with LPS-induced lung inflammation. Nature of the test: Acute lung inflammation in the LPS driven model. The note with it: 2 mg/kg.
Experimental: The incision was closed with wound clips and the mice returned to cages.
Six hours after LPS/saline injection, the mice were anesthetized, the wound clips removed, the trachea was cannulated with a 23G blunt needle, and the lungs lavaged eight times with 0.5 ml heparinized saline. The lavage was pooled, gently inverted, and a sample retained for white blood cell (WBC) differential analysis. The remainder of the lavage was centrifuged, the supernatants used for cytokine analysis.

Where a name gives a salt, the structure may show the parent alone. Some results are limits rather than exact numbers.

Recombinant human MAO-B, sequence (P27338 whole entry): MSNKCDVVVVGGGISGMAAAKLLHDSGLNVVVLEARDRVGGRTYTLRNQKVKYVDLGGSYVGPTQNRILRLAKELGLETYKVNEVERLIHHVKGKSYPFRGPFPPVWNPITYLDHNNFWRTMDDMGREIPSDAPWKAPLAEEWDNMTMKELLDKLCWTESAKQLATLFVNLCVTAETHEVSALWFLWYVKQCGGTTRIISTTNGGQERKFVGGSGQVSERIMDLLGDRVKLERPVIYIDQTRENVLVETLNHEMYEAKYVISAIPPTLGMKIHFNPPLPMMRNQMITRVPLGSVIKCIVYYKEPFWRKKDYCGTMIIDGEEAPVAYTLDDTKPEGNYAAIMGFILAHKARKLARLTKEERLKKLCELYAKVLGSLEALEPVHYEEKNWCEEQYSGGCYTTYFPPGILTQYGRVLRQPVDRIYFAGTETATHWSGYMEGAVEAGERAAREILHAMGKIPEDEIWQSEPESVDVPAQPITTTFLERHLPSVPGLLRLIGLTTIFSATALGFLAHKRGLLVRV
Endogenous SSAO/VAP-1 in rat fat, sequence (O08590 whole entry): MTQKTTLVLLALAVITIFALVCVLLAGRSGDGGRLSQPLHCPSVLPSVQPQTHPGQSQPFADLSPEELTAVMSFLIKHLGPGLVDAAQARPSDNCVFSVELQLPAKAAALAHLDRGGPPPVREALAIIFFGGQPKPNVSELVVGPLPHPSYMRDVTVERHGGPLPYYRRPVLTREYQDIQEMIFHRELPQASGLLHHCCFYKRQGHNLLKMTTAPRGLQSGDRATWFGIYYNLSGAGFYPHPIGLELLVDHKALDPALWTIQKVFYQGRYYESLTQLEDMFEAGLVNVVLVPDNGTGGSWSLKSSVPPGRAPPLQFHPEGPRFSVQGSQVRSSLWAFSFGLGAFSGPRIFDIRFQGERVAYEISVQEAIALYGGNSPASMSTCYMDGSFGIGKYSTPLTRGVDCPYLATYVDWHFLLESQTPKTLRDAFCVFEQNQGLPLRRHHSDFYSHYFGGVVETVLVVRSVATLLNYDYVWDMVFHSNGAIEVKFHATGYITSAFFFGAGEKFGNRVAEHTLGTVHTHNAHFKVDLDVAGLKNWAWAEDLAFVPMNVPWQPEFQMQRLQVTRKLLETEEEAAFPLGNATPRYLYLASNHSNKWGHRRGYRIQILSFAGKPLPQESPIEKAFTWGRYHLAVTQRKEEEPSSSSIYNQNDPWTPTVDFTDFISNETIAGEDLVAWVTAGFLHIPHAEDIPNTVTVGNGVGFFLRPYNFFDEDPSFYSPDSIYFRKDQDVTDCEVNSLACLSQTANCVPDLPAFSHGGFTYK

With `CN(C)S(=O)(=O)c1cccc(OC/C(=C\F)CN)c1` [Compound 15, (Z)-3-(2-(Aminomethyl)-3-fluoroallyloxy)-N,N-dimethylbenzenesulfonamide], the IC50 in test [1] was greater than 100000 nM; in test [2], less than 100 nM.
In the case of `CCNS(=O)(=O)c1ccc(OC/C(=C\F)CN)cc1` [Compound 31, (Z)-4-(2-(Aminomethyl)-3-fluoroallyloxy)-N-ethylbenzenesulfonamide], the IC50 in test [1] is greater than 1000 nM; in test [2] it was less than 100 nM; in test [3] it was less than 1000 nM.
As for `CNC(=O)c1ccc(OC/C(=C/F)CN)cc1` [Compound 25, (E)-4-(2-(Aminomethyl)-3-fluoroallyloxy)-N-methylbenzamide], the IC50 is greater than 1000 nM in test [1], less than 100 nM in test [2], less than 1000 nM in test [3] and less than 100 nM in test [4].
`NC/C(=C/F)CCc1ccc(F)cc1` [Mofegiline, reference compound] gave a half-maximal inhibitory concentration (IC50) in test [2] of 6 nM.
For the molecule `NC/C(=C/F)COc1ccc(S(N)(=O)=O)cc1` [Compound 9, (Z)-4-(2-(Aminomethyl)-3-fluoroallyloxy)benzenesulfonamide], the IC50 in test [1] is greater than 10000 nM; in test [2], less than 100 nM; in test [3] it was less than 1000 nM; in test [4], less than 100 nM. For the same molecule, the “neutrophil infiltration in the dorso-lateral striatum and hippocampus” value in test [5] (30 h after first LPS injection) is reported as “reduced”. Further, the “microglial cell recruitment and activation in the substantia nigra and dorso-lateral striatum” value in test [5] (dendrites length, surface and volume) is “reduction”. For the same molecule, the IL-6 levels result in test [6] (lavage supernatant) is listed as “diminution”. Also, the TNF-α levels entry in test [6] (lavage supernatant) is given as “diminution”. Also, the neutrophil infiltration entry in test [6] (lung lavage six hours after LPS) is listed as “significant reduction”.
Consider `NC/C(=C/F)COc1ccc(C(N)=O)cc1` [Compound 2, (Z)-4-(2-(Aminomethyl)-3-fluoroallyloxy)benzamide], for which the 50% inhibitory concentration (IC50) is greater than 1000 nM in test [1], less than 100 nM in test [2], less than 100 nM in test [3] and less than 100 nM in test [4].
`CC(C)NS(=O)(=O)c1ccc(OC/C(=C/F)CN)cc1` [Compound 32, (E)-4-(2-(Aminomethyl)-3-fluoroallyloxy)-N-isopropylbenzenesulfonamide]: the figures for the IC50 in test [1], in test [2] and in test [3] were greater than 10000 nM, less than 100 nM and greater than 10000 nM, respectively.
Consider `CCN(CC)C(=O)c1ccc(OC/C(=C/F)CN)cc1` [Compound 24, (E)-4-(2-(Aminomethyl)-3-fluoroallyloxy)-N,N-diethylbenzamide], for which the IC50 is greater than 1000 nM in test [1], less than 100 nM in test [2] and greater than 10000 nM in test [3].
For `CN(C)C(=O)c1ccc(SCC(=CF)CN)cc1` [Compound 8, 4-(2-(Aminomethyl)-3-fluoroallylthio)-N,N-dimethylbenzamide], the IC50 in test [1] was greater than 1000 nM; in test [4] it was less than 100 nM.
With `CNS(=O)(=O)c1ccc(OC/C(=C\F)CN)cc1` [Compound 29, (Z)-4-(2-(Aminomethyl)-3-fluoroallyloxy)-N-methylbenzenesulfonamide], the figures for the IC50 in test [1], in test [2] and in test [3] were greater than 10000 nM, less than 100 nM and greater than 1000 nM, respectively.
Turning to `NC/C(=C\F)COc1ccc(S(N)(=O)=O)cc1` [Compound 11, (E)-4-(2-(Aminomethyl)-3-fluoroallyloxy)benzenesulfonamide], the concentration for half-maximal inhibition (IC50) in test [1] was greater than 10000 nM; in test [2], less than 100 nM; in test [3] it was greater than 10000 nM; in test [4] it was less than 100 nM.
`CN(C)S(=O)(=O)c1ccc(OC/C(=C\F)CN)cc1` [Compound 10, (Z)-4-(2-(Aminomethyl)-3-fluoroallyloxy)-N,N-dimethylbenzenesulfonamide]: the results for the half-inhibitory concentration (IC50) in test [1], in test [2] and in test [3] were greater than 10000 nM, less than 100 nM and greater than 1000 nM, respectively.
Consider `CN(C)C(=O)c1ccc(OC/C(=C\F)CN)c(Br)c1` [Compound 20, (Z)-4-(2-(Aminomethyl)-3-fluoroallyloxy)-3-bromo-N,N-dimethylbenzamide], for which the half-inhibitory concentration (IC50) in test [1] is greater than 1000 nM; in test [3], less than 1000 nM.
Consider `NC/C(=C\F)COc1ccc(C(N)=O)cc1` [Compound 3, (E)-4-(2-(Aminomethyl)-3-fluoroallyloxy)benzamide], for which the concentration for half-maximal inhibition (IC50) was greater than 10000 nM in test [1], less than 100 nM in test [2], greater than 1000 nM in test [3] and less than 100 nM in test [4].
As for `CN(C)C(=O)c1ccc(OC/C(=C\F)CN)cc1` [Compound 18, (Z)-4-(2-(Aminomethyl)-3-fluoroallyloxy)-N,N-dimethylbenzamide], the half-maximal inhibitory concentration (IC50) in test [1] was greater than 100 nM; in test [2], less than 100 nM; in test [3], less than 100 nM; in test [4] it was less than 100 nM.
As to `CNS(=O)(=O)c1ccc(OC/C(=C/F)CN)cc1` [Compound 28, (E)-4-(2-(Aminomethyl)-3-fluoroallyloxy)-N-methylbenzenesulfonamide], the figures for the IC50 in test [1], in test [2] and in test [3] were greater than 10000 nM, less than 100 nM and greater than 10000 nM, respectively.
Turning to `CCNS(=O)(=O)c1ccc(OC/C(=C/F)CN)cc1` [Compound 30, (E)-4-(2-(Aminomethyl)-3-fluoroallyloxy)-N-ethylbenzenesulfonamide], the half-maximal inhibitory concentration (IC50) was greater than 10000 nM in test [1], less than 100 nM in test [2] and greater than 10000 nM in test [3].
Consider `CN(C)C(=O)c1ccc(OC/C(=C\F)CN)c(Cl)c1` [Compound 6, (Z)-4-(2-(Aminomethyl)-3-fluoroallyloxy)-3-chloro-N,N-dimethylbenzamide], for which the values for the concentration for half-maximal inhibition (IC50) in test [1] and in test [3] were greater than 1000 nM and less than 1000 nM, respectively.
On to `CN(C)S(=O)(=O)c1ccc(OC/C(=C/F)CN)cc1` [Compound 14, (E)-4-(2-(Aminomethyl)-3-fluoroallyloxy)-N,N-dimethylbenzenesulfonamide], for which the IC50 in test [1] was greater than 10000 nM; in test [2], less than 100 nM; in test [3] it was greater than 10000 nM.
Regarding `CC(C)NS(=O)(=O)c1ccc(OC/C(=C\F)CN)cc1` [Compound 33, (Z)-4-(2-(Aminomethyl)-3-fluoroallyloxy)-N-isopropylbenzenesulfonamide], the half-inhibitory concentration (IC50) in test [1] was greater than 10000 nM; in test [2], less than 100 nM; in test [3], less than 1000 nM.
On to `CN(C)C(=O)c1ccc(OC/C(=C/F)CN)cc1` [Compound 13, hydrochloride], for which the IC50 in test [1] is greater than 100 nM; in test [2] it was less than 100 nM; in test [3] it was greater than 1000 nM; in test [4], less than 100 nM.
Take `Cc1cc(OC/C(=C\F)CN)ccc1C(=O)N(C)C` [Compound 26, (Z)-4-(2-(Aminomethyl)-3-fluoroallyloxy)-N,N,2-trimethylbenzamide]: the IC50 is greater than 1000 nM in test [1], less than 1000 nM in test [3] and less than 100 nM in test [4].
Take `CN(C)C(=O)c1ccc(OC/C(=C\F)CN)c(F)c1` [Compound 4, (Z)-4-(2-(Aminomethyl)-3-fluoroallyloxy)-3-fluoro-N,N-dimethylbenzamide]: the figures for the IC50 in test [1], in test [2] and in test [3] were greater than 100 nM, less than 100 nM and less than 1000 nM, respectively.
As to `COc1cc(C(=O)N(C)C)ccc1OCC(=CF)CN` [Compound 7, 4-(2-(Aminomethyl)-3-fluoroallyloxy)-3-methoxy-N,N-dimethylbenzamide], the values for the IC50 in test [1], in test [3] and in test [4] were greater than 10000 nM, less than 1000 nM and less than 100 nM, respectively.

In general, IC50 refers to the concentration needed to halve the response being measured.

The values above are taken from patent US9302986B2, “Substituted 3-haloallylamine inhibitors of ASSAO and uses thereof” (Boehringer Ingelheim International GmbH, priority 2012, dated 2016).
